Results as given in publication PMC8167039, “A Comparative Study of Human and Zebrafish Pregnane X Receptor Activities of Pesticides and Steroids Using In Vitro Reporter Gene Assays” (Frontiers in Endocrinology, 2021).
“Also recorded” adds a separate entry of the source. Read-outs that look alike come from different tables or passages of the source.

Assays:
[1] = target: T1, hPXR (Homo sapiens, UniProt O75469); assay: HG5LN Gal4-hPXR luciferase reporter gene assay, agonism
T1 sequence (O75469 146-433 limits assumed): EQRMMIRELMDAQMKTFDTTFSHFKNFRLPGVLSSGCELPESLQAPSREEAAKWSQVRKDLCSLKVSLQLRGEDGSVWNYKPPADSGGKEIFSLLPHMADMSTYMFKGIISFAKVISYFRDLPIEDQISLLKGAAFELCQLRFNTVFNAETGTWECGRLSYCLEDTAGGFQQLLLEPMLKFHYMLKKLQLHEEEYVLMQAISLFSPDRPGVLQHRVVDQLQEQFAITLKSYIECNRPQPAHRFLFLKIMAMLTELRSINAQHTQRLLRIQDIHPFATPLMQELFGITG
Protocol: (§1) The cell lines used in this study are listed in Supplementary Table 3 . The HG5LN, HG5LN Gal4-hPXR and HG5LN Gal4-zfPXR cell lines were previously described ([19]). Briefly, HeLa cells stably transfected with the GAL4RE5-βGlobin-Luc-SVNeo plasmid (HG5LN cell line) ([15]). HG5LN cells were stably transfected with the pSG5-GAL4(DBD)-hPXR(LBD)-puro or pSG5-GAL4(DBD)-zfPXR(LBD)-puro plasmids.
(§2) HG5LN cells were cultured in Dulbecco’s Modified Eagle Medium: Nutrient Mixture F-12 (D-MEM/F-12) containing phenol red and 1 g/L glucose and supplemented with 5% fetal bovine serum, 100 units/mL of penicillin and 100 µg/mL of streptomycin supplemented with 1 mg/mL geneticin in a 5% CO2 humidified atmosphere at 37°C. HG5LN GAL4-hPXR and GAL4-zfPXR were cultured in the same culture medium supplemented with 0.5 µg/mL puromycin.
(§3) The ability of chemicals to modulate the hPXR and zfPXR was investigated in HG5LN, HG5LN-hPXR, HG5LN-zfPXR, and ZFL-zfPXR cell lines after exposure to serial dilutions of the compounds and measurement of luciferase activity. […] Briefly, cells were seeded in 96-well white opaque flat bottom microplates at 0.5 10^5 cells per well in culture medium. […] Cells were then exposed to a concentration range of the compounds by using an automated workstation (Biomek 3000, Beckman Coulter). The final concentration of DMSO in the well never exceeds 0.1% (v/v). After 16h of exposure, medium was removed and 50 µL of test medium containing 0.3 mM D-luciferin were added per well. After 5 min, the production of light was assessed in living cells using microplate reader (MicroBeta, PerkinElmer SAS, Courtabœuf, France).
(§4) In the transactivation assay, each compound was tested at various concentrations in three independent experiments at least. For each experiment, tests were performed in quadruplicates for each concentration, and data are expressed by means values with standard deviations. […] This allowed to determine EC50 and IC50 values of tested chemicals.

[2] = target: T2, zfPXR (Danio rerio, UniProt A5WYG8); assay: HG5LN Gal4-zfPXR luciferase reporter gene assay, antagonism (coexposure with clotrimazole); assay type: cell-based, zebrafish
Protocol: as §1, §2, §3, §4

[3] = target: T2, zfPXR; assay: HG5LN Gal4-zfPXR luciferase reporter gene assay, agonism; assay type: cell-based, zebrafish; parameters: Emax: dose or concentration left out as unconfirmed; conditions: for effect on zfPXR transcriptional activity (in words): HG5LN Gal-zfPXR cells; for zfPXR agonism Max: HG5LN-zfPXR, % of maximal induced by 1 µM clotrimazole, DMSO 28 ± 1.7
Protocol: as §1, §2, §3, §4

[4] = target: T2, zfPXR; assay: cell-based
Protocol: as §3, §4

[5] = HG5LN-hPXR, maximal activity at 10 µM, % of maximal induced by 3 µM SR 12813, DMSO 19 ± 6
[6] = HG5LN, read-out: zfPXR antagonism Min
[7] = HG5LN; read-out: zfPXR antagonism Min
[8] = read-out: zfPXR antagonism IC50
[9] = HG5LN, read-out: zfPXR agonism Max
[10] = HG5LN-zfPXR cells, 16h exposure, n.a. = not active, read-out: zfPXR agonism EC50
[11] = read-out: hPXR agonism EC50, HG5LN-hPXR cells, 16h exposure, n.a. = not active
[12] = compounds marked *, not tested above 3 µM (clotrimazole: 1 µM)

T2 sequence (A5WYG8 entry or part of it): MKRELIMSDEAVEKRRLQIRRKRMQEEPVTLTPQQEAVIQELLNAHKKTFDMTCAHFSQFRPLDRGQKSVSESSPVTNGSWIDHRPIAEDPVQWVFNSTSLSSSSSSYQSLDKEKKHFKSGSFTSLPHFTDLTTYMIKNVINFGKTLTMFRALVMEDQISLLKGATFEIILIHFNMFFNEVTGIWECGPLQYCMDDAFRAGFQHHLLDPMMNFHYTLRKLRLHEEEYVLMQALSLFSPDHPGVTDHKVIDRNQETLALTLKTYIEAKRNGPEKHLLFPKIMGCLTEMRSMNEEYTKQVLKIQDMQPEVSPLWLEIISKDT

CC1(C)[C@H](C(=O)O[C@H](C#N)c2cccc(Oc3ccccc3)c2)[C@@H]1/C=C(\Cl)C(F)(F)F (racemic) [λ-Cyhalothrin]
EC50 [1]: 1.7 ± 0.2 µM | hPXR agonism Max [1, 5]: 107% | IC50 [2]: 6.8 ± 1 µM | remaining activity at 10 µM [2, 6]: 45%

CC1(C)C(C=C(Cl)Cl)C1C(=O)OC(C#N)c1cccc(Oc2ccccc2)c1 (stereo not shown) [Cypermethrin]
IC50 [2]: 5 ± 0.3 µM | remaining activity at 10 µM [2, 6]: 31%

C[C@@H]1C[C@H]2[C@@H]3CCC4=CC(=O)C=C[C@]4(C)[C@@]3(F)[C@@H](O)C[C@]2(C)[C@@]1(O)C(=O)CO [Dexamethasone, reference compound]
effect on hPXR transcriptional activity (in words) [1]: no effect | effect on zfPXR transcriptional activity (in words) [3]: no effect | effect on zfPXR transcriptional activity (in words) ([3]; listed as dexamethasone): do not modulate

COC(=O)C(C)Oc1ccc(Oc2ccc(Cl)cc2Cl)cc1 (stereo not shown) [Diclofop-methyl]
remaining activity at 10 µM [2, 7]: 65%

ClC1=C(Cl)[C@]2(Cl)[C@@H]3[C@@H]4C[C@@H]([C@H]5O[C@@H]45)[C@@H]3[C@@]1(Cl)C2(Cl)Cl [Dieldrin]
EC50 [1]: 9.2 ± 1.4 µM | hPXR agonism Max [1]: 62% | IC50 [2]: 19 ± 8.8 µM

C[C@]12CCC(=O)C=C1[C@@H]1C[C@@H]1[C@H]1[C@@H]3[C@@H]4C[C@@H]4[C@@]4(CCC(=O)O4)[C@@]3(C)CC[C@@H]12 [Drospirenone, reference compound]
hPXR agonism Max [1, 5]: 44% | remaining activity at 10 µM [2, 6]: 52% | IC50 [2, 8]: 3.6 ± 0.4 µM

O=S1OCC2C(CO1)C1(Cl)C(Cl)=C(Cl)C2(Cl)C1(Cl)Cl (stereo not shown) [Endosulfan]
EC50 [1]: 5.7 ± 0.4 µM | hPXR agonism Max [1, 5]: 72% | EC50 [3]: 11000 ± 1500 nM | Emax [3, 9]: 57%

ClC1=C(Cl)C2(Cl)C3C4CC(C5OC45)C3C1(Cl)C2(Cl)Cl (stereo not shown) [Endrin]
EC50 [1]: 6.9 ± 1.2 µM | hPXR agonism Max [1]: 66% | EC50 [3]: 14000 ± 1200 nM

CCCSP(=O)(OCC)SCCC [Ethoprophos]
hPXR agonism Max [1, 5]: 33% | Emax [3, 9]: 38%

C#C[C@]1(O)CC[C@H]2[C@@H]3CCC4=CC(=O)CC[C@@H]4[C@H]3C(=C)C[C@@]21CC [Etonogestrel, reference compound]
EC50 [1]: 24 ± 4.6 µM | EC50 [3, 10]: 2300 ± 200 nM | Emax at 10 µM [3, 9]: 90%

CCOP(=O)(NC(C)C)Oc1ccc(SC)c(C)c1 (stereo not shown) [Fenamiphos]
hPXR agonism Max [1]: 76% | EC50 [3]: 700 ± 210 nM | zfPXR agonism Max ([3]; maximal activity at 10 µM): 103%

OC(c1ccc(Cl)cc1)(c1cncnc1)c1ccccc1Cl (stereo not shown) [Fenarimol]
EC50 [1]: 13 ± 2.2 µM | hPXR agonism Max [1, 5]: 56% | IC50 [2]: 24 ± 7.1 µM | remaining activity at 10 µM [2, 6]: 66%

ClC1=C(Cl)[C@]2(Cl)[C@@H]3[C@@H](Cl)[C@@H]4O[C@@H]4[C@@H]3[C@@]1(Cl)C2(Cl)Cl [Heptachlor endo-epoxide]
hPXR agonism Max [1]: 69% | EC50 [1, 11]: 3.4 ± 0.7 µM | EC50 [3, 10]: 2000 ± 900 nM | zfPXR agonism Max [3, 12]: 32%

ClC1=C(Cl)[C@]2(Cl)[C@@H]3[C@@H](Cl)[C@H]4O[C@H]4[C@@H]3[C@@]1(Cl)C2(Cl)Cl [Heptachlor exo-epoxide]
hPXR agonism Max [1]: 85% | EC50 [1, 11]: 1.9 ± 0.1 µM | EC50 [3, 10]: 1400 ± 40 nM | zfPXR agonism Max [3, 12]: 76%

ClC1=C(Cl)C2(Cl)C3C(Cl)C=CC3C1(Cl)C2(Cl)Cl (stereo not shown) [Heptachlor]
hPXR agonism Max [1, 5]: 43% | EC50 [3]: 7400 ± 1800 nM | Emax [3, 9]: 44%

C=CCOC(Cn1ccnc1)c1ccc(Cl)cc1Cl (stereo not shown) [Imazalil]
EC50 [1]: 10 ± 1.4 µM | hPXR agonism Max ([1]; HG5LN-hPXR, compounds marked *, not tested above 3 µM (clotrimazole, SPA70: 1 µM), % of maximal induced by 3 µM SR 12813, DMSO 19 ± 6): 39% | EC50 [3]: 9800 ± 2600 nM

Cl[C@H]1[C@H](Cl)[C@@H](Cl)[C@@H](Cl)[C@H](Cl)[C@H]1Cl [Lindane]
EC50 [1]: 10 ± 1.8 µM | hPXR agonism Max [1]: 62% | EC50 [3]: 14000 ± 900 nM

C#C[C@]1(O)CC[C@H]2[C@@H]3CCC4=CCCC[C@@H]4[C@H]3CC[C@@]21C [Lynestrenol, reference compound]
hPXR agonism Max [1]: 30% | EC50 [3, 10]: 230 ± 10 nM

COCC(=O)N(c1c(C)cccc1C)C(C)C(=O)OC (stereo not shown) [Metalaxyl]
EC50 [1]: 31 ± 2.6 µM | hPXR agonism Max [1, 5]: 40% | EC50 [3]: 20000 ± 3100 nM | Emax [3, 9]: 42%

CCc1cccc(C)c1N(C(=O)CCl)C(C)COC (stereo not shown) [Metolachlor]
EC50 [1]: 0.68 ± 0.07 µM | hPXR agonism Max [1, 5]: 69% | EC50 [3]: 630 ± 30 nM | Emax [3, 9]: 115%

CC#C[C@]1(O)CC[C@H]2[C@@H]3CCC4=CC(=O)CCC4=C3[C@@H](c3ccc(N(C)C)cc3)C[C@@]21C [Mifepristone, reference compound]
IC50 [2]: 0.08 ± 0.003 µM | IC50 [4]: 60 ± 4 nM | zfPXR antagonism Min ([4]; ZFL-zfPXR, compounds marked *, not tested above 3 µM, coexposure with 0.03 µM clotrimazole, % of maximal induced by 1 µM clotrimazole): 5%

CCOc1cc(Oc2ccc(C(F)(F)F)cc2Cl)ccc1[N+](=O)[O-] [Oxyfluorfen]
EC50 [1]: 3 ± 0.1 µM | hPXR agonism Max [1, 5]: 86% | IC50 [2]: 10 ± 1.2 µM | remaining activity at 10 µM [2, 6]: 56%

CCCC(Cn1cncn1)c1ccc(Cl)cc1Cl (stereo not shown) [Penconazol]
hPXR agonism Max [1, 5]: 42% | EC50 [3]: 1500 ± 100 nM | Emax [3, 9]: 51%

CCN(CC)c1nc(C)cc(OP(=S)(OC)OC)n1 [Pirimiphos-methyl]
EC50 [1]: 22 ± 23 µM | hPXR agonism Max [1, 5]: 69% | EC50 [3]: 1100 ± 100 nM | Emax [3, 9]: 103%

CC(=O)[C@H]1[C@H](C#N)C[C@H]2[C@@H]3CC=C4C[C@@H](O)CC[C@]4(C)[C@H]3CC[C@@]21C [Pregnenolone16α-carbonitrile, reference compound]
effect on hPXR transcriptional activity (in words) ([1]; HG5LN Gal-hPXR cells): partially activated | hPXR agonism Max [1, 5]: 32% | EC50 [1, 11]: 22 ± 9.7 µM | effect on zfPXR transcriptional activity (in words) [3]: did not activate; also recorded: do not modulate

CCCOCCN(C(=O)CCl)c1c(CC)cccc1CC [Pretilachlor]
EC50 [1]: 0.18 ± 0.02 µM | hPXR agonism Max [1]: 94% | EC50 [3]: 580 ± 70 nM

CCCN(CCOc1c(Cl)cc(Cl)cc1Cl)C(=O)n1ccnc1 [Prochloraz]
EC50 [1]: 1.8 ± 0.1 µM | hPXR agonism Max [1]: 71% | IC50 [2]: 11 ± 5.6 µM

CC(=O)[C@H]1CC[C@H]2[C@@H]3CCC4=CC(=O)CC[C@]4(C)[C@H]3CC[C@]12C [Progesterone, reference compound]
EC50 [1]: 9.1 ± 2.2 µM | remaining activity at 10 µM [2, 7]: 14% | IC50 [2, 8]: 0.64 ± 0.03 µM

CCCC1COC(Cn2cncn2)(c2ccc(Cl)cc2Cl)O1 (stereo not shown) [Propiconazole]
EC50 [1]: 13 ± 1.5 µM | hPXR agonism Max [1, 5]: 58% | EC50 [3]: 1000 ± 100 nM | Emax [3, 9]: 33%

CC(C)(C)C(O)(CCc1ccc(Cl)cc1)Cn1cncn1 (stereo not shown) [Tebuconazole]
EC50 [1]: 6.8 ± 0.4 µM | hPXR agonism Max [1, 5]: 71% | IC50 [2]: 24 ± 4.3 µM | remaining activity at 10 µM [2, 6]: 62%

c1ccc2[nH]c(-c3cscn3)nc2c1 [Thiabendazole]
IC50 [2, 8]: 10 ± 0.7 µM

COP(=S)(OC)Oc1c(Cl)cc(C)cc1Cl [Tolclofos-methyl]
EC50 [1]: 11 ± 0.3 µM | hPXR agonism Max [1, 5]: 59% | EC50 [3]: 2500 ± 100 nM | Emax [3, 9]: 88%

CC1(C)C(C(Cl)Cl)C2(Cl)C(Cl)C(Cl)C1(Cl)C2(Cl)Cl (stereo not shown) [Toxaphene]
EC50 [1]: 0.75 ± 0.03 µM | hPXR agonism Max [1]: 89% | EC50 [3]: 150 ± 10 nM

ClC1=C(Cl)[C@]2(Cl)[C@H]3[C@H]([C@H](Cl)C(Cl)[C@@H]3Cl)[C@@]1(Cl)C2(Cl)Cl (stereo partly drawn) [Trans-nonachlor]
hPXR agonism Max [1, 5]: 70% | EC50 [1, 11]: 5.3 ± 0.2 µM | EC50 [3, 10]: 29000 ± 5500 nM | zfPXR agonism Max ([3]; maximal activity at 10 µM): 43%

CCCOC/C(=N\c1ccc(Cl)cc1C(F)(F)F)n1ccnc1 [Triflurnizole]
EC50 [1]: 21 ± 14 µM | EC50 [3]: 6000 ± 800 nM | Emax [3, 9]: 48%
